Non-standard residues stand in square brackets, D forms with d. Residues, ends and D or L forms follow the SMILES beside them. Dopa = N[C@@H](Cc1ccc(O)c(O)c1)C(=O)O
Assays:
S100A9 [1] = biological target: T1, S100A9 (Homo sapiens, UniProt P06702); assay: ThT fluorescence kinetics of S100A9 amyloid formation in the presence of compounds; type: biochemical; conditions: for k, kinetic rate constant of S100A9 amyloid formation: 75 μM S100A9, 20 µM ThT, PBS pH 7.4, 42 °C, isodesmic polymerization fit, triplicate; for k/kS100A9: 75 μM S100A9, PBS pH 7.4, 42 °C
T1 construct: made in house; host or cells: E. coli
T1 sequence (P06702 1-114): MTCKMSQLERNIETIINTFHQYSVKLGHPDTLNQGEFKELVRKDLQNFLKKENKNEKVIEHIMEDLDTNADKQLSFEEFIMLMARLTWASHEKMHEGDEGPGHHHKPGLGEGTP
Source text: The amyloid formation of S100A9 in the absence and presence of DOPA and cyclen-based compounds was monitored by ThT fluorescence and is presented in Figure 2. The amyloid formation correlates with the increase of the ThT fluorescence, and the initial parts of the fibrillation kinetic curves were fitted by using an isodesmic polymerization model to derive the kinetic rates; this model has previously been used in kinetic analysis of S100A9 amyloid self-assembly.
Figure 2 Kinetics of S100A9 amyloid formation in the absence and presence of DOPA and cyclen-based compounds monitored by ThT fluorescence. (a) Amyloid kinetics monitored at the ratio of S100A9 to corresponding compound of 1:1 and (b) 1:10, respectively. Symbols indicating the experimental data points for S100A9 alone or with respective compounds are shown in the caption and the corresponding lines indicate the fitting with the isodesmic polymerization model. The equation for isodesmic polymerization fitting is shown in ((b) inset). 75 μM S100A9, PBS, pH 7.4, and 42 °C.
ThT dye is known to bind specifically to β-sheet-containing amyloid structures and thus enables quantification of the kinetics of amyloid self-assembly. ThT assay was performed as described previously. First, 75 μM S100A9 was transferred into Nunc 96U black well plates with transparent bottoms and then 20 µM ThT was added to each well. The compounds dissolved in PBS were added to S100A9 solution with molar ratios of 1:1 and 1:10, respectively. Sample volumes were kept at 200 μL per well. The plates were immediately covered, placed into a Tecan F200 PRO plate reader, and incubated at 42 °C with 432 rpm orbital shaking every 10 min. ThT fluorescence was recorded every 10 min. Filters at 430 and 495 nm wavelengths with a 20 nm band width each were used for excitation and emission, respectively. Each sample was incubated in triplicate. ThT fluorescence intensities were normalized.

S100A9 [2] = biological target: T1, S100A9; assay: Titration of S100A9 with compounds followed by intrinsic fluorescence; conditions: intrinsic Trp 88 fluorescence, single binding site model, legend: 75 μM S100A9, PBS pH 7.4, 20 °C, method: 1 μM S100A9, 5 nM to 2.4 μM compound, 3 h room temperature, triplicates; for Kd: read-out: apparent dissociation constant Kd
Experimental: S100A9 was titrated by each compound of interest following the changes in intrinsic fluorescence intensity, since S100A9 has one aromatic residue: Trp 88. The fitting was performed using a single binding site model to determine the apparent dissociation constant for each compound. […] A twice larger Kd was determined only for DOPA-D-H-DOPA binding.
Figure 4 Binding of DOPA and cyclen-based compounds to native S100A9 followed by intrinsic fluorescence. (a–e) Normalized titrations of S100A9 by corresponding compounds. Each compound is indicated above corresponding figure (a–e) and their Kd in captions. Symbols indicate the experimental data points and lines the fitting with a single binding site model. 75 μM S100A9, PBS, pH 7.4, and 20 °C.
First, 1 μM S100A9 was incubated in PBS, pH 7.4, room temperature for 3 h in the absence or presence of 5 nM to 2.4 μM of the studied compounds prior to fluorescence measurements. The final volume was kept at 400 μL for all samples. The fluorescence emission spectra were recorded using a Jasco spectrofluorometer FP 6500 (Japan), setting the excitation at 296 nm and emission at 350 nm wavelengths, respectively, with a 3 nm band-width on both the excitation and emission. The measurements were performed in triplicates. Fitting of the normalized titration curves was performed by using a single site binding model.

[3] = ThT incubation of individual compounds (amyloid self-assembly of the compounds); type: physicochemical; conditions: 75 μM compound, PBS pH7.4, 42 °C, same period as S100A9 kinetics
Experimental: Figure S1. Time dependence of Thioflavin-T fluorescence changes during its incubation with S100A9 and DOPA and Cyclen-based compounds. Thioflavin-T fluorescence in arbitrary units is shown along y-axis, time in minutes – along x-axis. Increase in Thioflavin-T fluorescence in the presence of 75 μM S100A9 reflects its amyloid self-assembly and shown in brown. By contrast, there were no increase in Thioflavin-T fluorescence upon incubation with 75 μM of corresponding compounds as […]
green line, for DOPA-H-H-DOPA – by orange, DOPA-D-H – by chartreuse, H-E-Cyclen – by red and […]
assembly of these compounds under the conditions of our experiments. PBS, pH7.4 and 42 °C.
(1 picture or pasted object on this page, not shown here)

S100A9 amyloid fibrils = assay: AFM imaging of S100A9 fibrils, fibril height distributions; type: biochemical; conditions: PBS pH 7.4, 42 °C; for S100A9 fibril morphology change (AFM): molar ratio 1:1; for median height of S100A9 fibrils (AFM): molar ratio 1:10, text, S100A9 alone ca. 1.6 nm
Experimental: In order to complement the kinetic analysis, we also monitored the S100A9 amyloid formation by AFM imaging (Figure 3). The amyloid fibrils of S100A9 alone that developed after 100 h of incubation in PBS, pH 7.4, and 42 °C were very flexible, relatively short, i.e., within 200–600 nm length, and also characterized by a narrow distribution of the heights with a median at ca. 1.6 nm in the AFM cross-sections. In the presence of all DOPA-based compounds, the fibrils of S100A9 become thicker with median heights of ca. 2.0–2.2 nm, and generally longer (Figure 3). […] At the molar ratio of S100A9 to DOPA-based compounds of 1:10, the height of fibrils became even thicker, shifting towards 2.2–2.8 nm median height and in the case of DOPA-D-H-DOPA to 3.0–3.2 nm (Figure 3), while their lengths remained about the same as at the 1:1 molar ratio.
Figure 3 AFM imaging of S100A9 fibrils in the absence and presence of DOPA and cyclen-based compounds and the analysis of fibril height distributions. (a) Representative AFM image of S100A9 fibrils incubated alone. (b,c) Distribution of fibril heights measured in AFM cross-sections. The same distribution is shown in both columns to facilitate the comparison with the following height distributions carried out in the presence of compounds. (d,g,j,m,p) Representative AFM images of S100A9 fibrils in the presence of DOPA and cyclen-based compounds at a 1:1 molar ratio of S100A9 to compound. (e,h,k,n,q) Distributions of fibril heights measured in AFM cross-sections at the S100A9 to compound molar ratio of 1:1 and (f,i,l,o,r) at molar ratio of 1:10. Image sizes are 2.5 × 2.5 μm. The compounds and molar ratios are indicated above the figures. Samples were incubated for 50 h in PBS, pH 7.4, and 42 °C. […]
S100A9 protein was expressed in E. coli and purified as described previously. Freshly dissolved S100A9 in PBS, pH 7.4 was used in all measurements. Lyophilized S100A9 was dissolved on ice in PBS buffer at pH 7.4. Then, S100A9 samples were filtered using a 0.22 µm spin membrane filter to remove any preformed aggregates. These solutions were directly subjected to experiments. To produce amyloids, S100A9 was incubated in PBS, pH 7.4, and 42 °C. The cyclic compounds (Figure 1) were dissolved in PBS at pH 7.4, and their stock solutions were kept frozen prior to measurements.
AFM imaging was performed by using a BioScope Catalyst AFM (Bruker; Phoenix, AZ, USA), operating in a peak force mode in air. The scan rate was 0.51 Hz and the resolution was 512 × 512 pixels. Bruker MSLN and SLN cantilevers were used in all measurements. Imaging was also conducted using a PicoPlus AFM (Molecular Imaging), equipped with a 100 μm scanner, operating in tapping mode in air. The resonance frequency was set in 170 to 190 kHz range, scan rate of 1 Hz, and resolution of 512 × 512 pixels. […]

Kd (S100A9 [2]) [nM] | Compound | k, kinetic rate constant of S100A9 amyloid formation (S100A9 [1]; S100A9:compound 1:1) [µM⁻¹ s⁻¹] | k/kS100A9 (S100A9 [1]; S100A9:compound 1:1) | k, kinetic rate constant of S100A9 amyloid formation (S100A9 [1]; S100A9:compound 1:10) [µM⁻¹ s⁻¹] | apparent dissociation constant Kd (S100A9 [2]) | ThT fluorescence upon incubation of compound alone (amyloid self-assembly) [3] | k/kS100A9 (S100A9 [1]; S100A9:compound 1:10) | S100A9 fibril morphology change (AFM) (S100A9 amyloid fibrils) | median height of S100A9 fibrils (AFM) (S100A9 amyloid fibrils)
 | N[C@@H](Cc1ccc(O)c(O)c1)C(=O)N[C@@H](Cc1c[nH]cn1)C(=O)N[C@@H](Cc1c[nH]cn1)C(=O)N[C@@H](Cc1ccc(O)c(O)c1)C(=O)O [DOPA-H-H-DOPA] (H-[Dopa]HH[Dopa]-OH) | 0.077 | 1.17 | 0.134 | sub-micromolar range | flat lines close to zero |  |  | 
 | N[C@@H](Cc1ccc(O)c(O)c1)C(=O)N[C@@H](CC(=O)O)C(=O)N[C@@H](Cc1c[nH]cn1)C(=O)N[C@@H](Cc1ccc(O)c(O)c1)C(=O)O [DOPA-D-H-DOPA] (H-[Dopa]DH[Dopa]-OH) | 0.06 | 0.91 | 0.066 | sub-micromolar range | flat lines close to zero | 1 | tended to clump together, forming large clustered aggregates | 3.0–3.2 nm
90 ± 50 | O=C(O)CC[C@H](NC(=O)CN1CCNCCNCCNCC1)C(=O)N[C@@H](Cc1c[nH]cn1)C(=O)O [H-E-cyclen] | 0.069 | 1.05 | 0.048 | sub-micromolar range | flat lines close to zero | 0.72 | did not lead to thickening of amyloid fibrils | 2.0 nm
100 ± 40 | O=C(CN1CCNCCNCCNCC1)N[C@@H](Cc1ccc(O)c(O)c1)C(=O)O [DOPA-cyclen] | 0.062 | 0.93 | 0.133 | sub-micromolar range | flat lines close to zero |  |  | 

Compound | Kd (S100A9 [2]) [nM] | k, kinetic rate constant of S100A9 amyloid formation (S100A9 [1]; S100A9:compound 1:1) [µM⁻¹ s⁻¹] | k/kS100A9 (S100A9 [1]; S100A9:compound 1:1) | k, kinetic rate constant of S100A9 amyloid formation (S100A9 [1]; S100A9:compound 1:10) [µM⁻¹ s⁻¹] | apparent dissociation constant Kd (S100A9 [2]) | ThT fluorescence upon incubation of compound alone (amyloid self-assembly) [3] | k/kS100A9 (S100A9 [1]; S100A9:compound 1:10) | S100A9 fibril morphology change (AFM) (S100A9 amyloid fibrils) | median height of S100A9 fibrils (AFM) (S100A9 amyloid fibrils)
N[C@@H](Cc1ccc(O)c(O)c1)C(=O)N[C@@H](CC(=O)O)C(=O)N[C@@H](Cc1c[nH]cn1)C(=O)O [DOPA-D-H] (H-[Dopa]-Asp-His-OH) | 110 ± 40 | 0.063 | 0.95 | 0.045 | sub-micromolar range | flat lines close to zero | 0.69 | tended to clump together, forming large clustered aggregates | 

— paper PMC8395260, “Co-Aggregation of S100A9 with DOPA and Cyclen-Based Compounds Manifested in Amyloid Fibril Thickening without Altering Rates of Self-Assembly” (International Journal of Molecular Sciences, 2021)
